{
  "source": "patent US8481523B2",
  "about": "“Biocide composition comprising pyrithione and pyrrole derivatives” (Arch Chemicals, Inc., priority 2006, dated 2013)",
  "system": "barnacles",
  "assay": "Paint efficacy testing: coated fiberglass rods suspended in the ocean, number of barnacles counted monthly",
  "type": "in vivo",
  "conditions": "paint formulations on rods in the ocean, Beaufort, N.C. coast, 2004",
  "procedure": "A series of nine paint formulations containing 4-bromo-2-(4-chlorophenyl)-5-(trifluoromethyl)-1H-pyrrole-3-carbonitrile (referred to in below table as Pyrrole) and zinc pyrithione (ZPT) were tested by Duke University off the Beaufort, N.C. coast in 2004 for their antifouling effectiveness against barnacles and other fouling organisms. The formulations were created in the laboratory by the addition of various amounts of biocides to a resin base-formulation (vinyl resin/wood rosin with Zn oxide filler). Formulations include 4-bromo-2-(4-chlorophenyl)-5-(trifluoromethyl)-1H-pyrrole-3-carbonitrile alone and in combination with ZPT. A solvent based zinc oxide coating was used as a control. Unprimed fiberglass rods (8 mm diameter×11 cm length) were dip-coated with each formulation (5 rods/formulation) and suspended from a test rack in the ocean (one-meter below the surface). Rods were evaluated each month for number of barnacles and bryozoans. The most promising results came from the formulations in which 4-bromo-2-(4-chlorophenyl)-5-(trifluoromethyl)-1H-pyrrole-3-carbonitrile was blended with ZPT (See Table 1 below).",
  "note": "“Also recorded” adds a separate entry of the source.",
  "data": [
    {"smiles": "N#Cc1c(-c2ccc(Cl)cc2)[nH]c(C(F)(F)F)c1Br", "note": "[4-bromo-2-(4-chlorophenyl)-5-(trifluoromethyl)-1H-pyrrole-3-carbonitrile]", "values": [
      {"measurement": "antifouling effectiveness against barnacles and other fouling organisms (in words)", "result": "effective antifouling agent for hard fouling organisms such as barnacles; also recorded: performs better with ZPT as a co-biocide than it does alone"}
    ]}
  ]
}
